Source: EP4631938A1, “NITROGEN-CONTAINING HETEROCYCLE WITH SEROTONIN RECEPTOR-BINDING ACTIVITY AND CARBOCYCLIC DERIVATIVE” (Shionogi & Co., Ltd, priority 2022, dated 2024)

Tests used:
[1] = target: T1, human recombinant 5-HT2C receptor (Homo sapiens, UniProt P28335); assay: Test Example 2-2: 5-HT2C receptor binding inhibition test ([3H]-Mesulergine; non-specific ligand Ketanserin); details: non-specific binding with 500 µmol/L Ketanserin, 37°C, 2 hours
T1 construct: expressed in transfected cells; host or cells: Jump-In HEK cells (membrane preparation)
T1 sequence (P28335 33-458): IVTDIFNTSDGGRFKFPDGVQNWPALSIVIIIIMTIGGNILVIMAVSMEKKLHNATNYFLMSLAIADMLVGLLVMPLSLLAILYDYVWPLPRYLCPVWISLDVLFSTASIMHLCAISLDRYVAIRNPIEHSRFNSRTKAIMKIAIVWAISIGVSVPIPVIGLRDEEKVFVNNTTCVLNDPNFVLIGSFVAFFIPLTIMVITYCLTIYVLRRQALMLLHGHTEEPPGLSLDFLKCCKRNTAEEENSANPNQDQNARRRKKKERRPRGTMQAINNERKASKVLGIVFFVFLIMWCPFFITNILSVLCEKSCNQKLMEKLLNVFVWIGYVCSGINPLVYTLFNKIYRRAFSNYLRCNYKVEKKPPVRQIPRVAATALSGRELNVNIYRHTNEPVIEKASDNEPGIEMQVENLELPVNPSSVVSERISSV
How it was run: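 Membranes expressing the receptor were incubated with compound and [3H]-Mesulergine for 2 h at 37 °C, then filtered and counted by scintillation. Non-specific binding was defined with 500 µmol/L Ketanserin. Percent inhibition versus vehicle gave dose-response curves, from which Ki was derived using a Kd from Scatchard saturation analysis.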

[2] = target: T2, human ether-a-go-go related gene (hERG) channel (Homo sapiens, UniProt Q12809); assay: Test Example 3-2: hERG test (FluxORII thallium flux, FLIPR, 4000 cells/well); assay type: cell-based; details: CHO cells expressing hERG channel, compound reacted for 10 minutes, 100% inhibition = E-4031 10.3 µmol/L
T2 construct: expressed in transfected cells; host or cells: CHO cells
T2 sequence (Q12809 whole entry): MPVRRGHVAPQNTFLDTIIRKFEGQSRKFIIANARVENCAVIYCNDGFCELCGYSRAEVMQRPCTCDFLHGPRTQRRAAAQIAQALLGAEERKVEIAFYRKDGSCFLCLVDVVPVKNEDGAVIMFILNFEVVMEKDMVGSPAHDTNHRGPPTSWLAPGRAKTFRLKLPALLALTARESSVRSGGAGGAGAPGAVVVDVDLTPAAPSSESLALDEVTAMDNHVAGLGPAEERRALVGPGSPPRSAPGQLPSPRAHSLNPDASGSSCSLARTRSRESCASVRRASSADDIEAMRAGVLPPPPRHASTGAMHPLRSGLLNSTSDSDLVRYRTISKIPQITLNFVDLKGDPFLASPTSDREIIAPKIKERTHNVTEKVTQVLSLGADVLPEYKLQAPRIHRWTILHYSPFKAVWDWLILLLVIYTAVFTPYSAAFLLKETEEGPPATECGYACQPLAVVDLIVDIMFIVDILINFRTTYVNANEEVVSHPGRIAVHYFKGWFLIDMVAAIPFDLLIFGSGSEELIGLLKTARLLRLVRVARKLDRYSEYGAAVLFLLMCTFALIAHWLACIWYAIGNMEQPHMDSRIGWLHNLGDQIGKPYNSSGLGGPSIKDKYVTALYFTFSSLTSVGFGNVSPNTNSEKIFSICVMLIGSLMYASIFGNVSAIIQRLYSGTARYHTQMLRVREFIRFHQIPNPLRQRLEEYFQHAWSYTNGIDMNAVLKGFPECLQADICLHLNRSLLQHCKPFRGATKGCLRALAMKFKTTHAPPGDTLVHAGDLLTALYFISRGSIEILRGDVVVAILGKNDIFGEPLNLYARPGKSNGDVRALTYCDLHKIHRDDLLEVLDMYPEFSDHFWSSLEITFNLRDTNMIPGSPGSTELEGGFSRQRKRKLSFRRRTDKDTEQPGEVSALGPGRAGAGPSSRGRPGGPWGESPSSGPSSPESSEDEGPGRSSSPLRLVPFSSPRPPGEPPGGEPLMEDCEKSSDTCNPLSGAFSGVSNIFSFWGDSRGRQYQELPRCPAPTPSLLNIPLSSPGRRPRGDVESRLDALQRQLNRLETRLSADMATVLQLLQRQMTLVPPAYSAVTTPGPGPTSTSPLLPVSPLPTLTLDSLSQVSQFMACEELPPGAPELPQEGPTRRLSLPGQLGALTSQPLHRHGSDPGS
Method: For the purpose of evaluating risk of an electrocardiogram QT interval prolongation of the compound of the present invention, effects of the compound are studied by evaluating the activity of potassium channel using CHO cells expressing human ether-a-go-go related gene (hERG) channel.
Evaluation is performed using a FluxORII Green Potassium Ion Channel Assay kit (Invitrogen: Molecular Probes).
Cells (4000 cells/well/40 µL) are seeded in a 384 assay plate, and are incubated overnight (37°C, 5% CO2). After replacing the medium with a Wash buffer (lxHBSS, 20 mM HEPES) with a microplate washer, a fluorescent indicator is added to the medium and allowed to incubate (37°C, 5% CO2) for 1 hour for incorporation of the fluorescent indicator into cells.
A cell plate is placed on a cell-based kinetic assay system FLIPR (Molecular Devices, LLC.), and the compound is added to the cells so as to have a desired concentration and reacted for 10 minutes. When a mixed solution of potassium and thallium as a stimulator is added thereto, the potassium channel is opened, and thallium that flowed into the cells binds to the fluorescent indicator, so that the intracellular fluorescence signal increases, and the potassium channel current is detected as a fluorescence signal. […] Then, the inhibition rate is calculated from the signal intensity at each concentration. IC50 is calculated from the inhibition rate at each concentration.

Row | SMILES | Ki [1] | IC50 [2]
1 | Cn1ncc(Br)c1-c1cc(Nc2ncc(C(F)(F)F)cc2F)ccc1OCCO [Compound I-006] | 0.271 nM | > 52000 nM
2 | COCc1nc(C)c(-c2cc(Nc3ncc(OC(F)(F)F)cc3Cl)ncc2OCCO)c(C)n1 [Compound I-200] | – | > 52000 nM
3 | Cc1cnn(C)c1-c1cc(Nc2ncc(C(F)(F)F)cc2F)ccc1OCCO [Compound I-008] | 0.822 nM | –
4 | Cn1ncc(F)c1-c1cc(Nc2ncc(C(F)(F)F)cc2F)cnc1OCCO [Compound I-127] | 3.47 nM | > 52000 nM
